ChEMBL document CHEMBL5728170, “Substituted pyrrolizine compounds and uses thereof” (2020)
pEC50: −log10 of the molar value.

Experiment: HBV DNA Quantification Assay: A HepG2 cell line overexpressing the HBV virus attachment receptor sodium-taurocholate cotransporting polypeptide (NTCP) was grown to confluency in DMEM growth medium, Dulbecco's Modified Eagle Medium without sodium pyruvate (Life Technologies, Rockville, Md.) supplemented with 10% FBS (Thermo Scientific, Waltham, Md.), 1% penicillin/streptomycin (Life Technologies, Rockville, Md.) and 2 mM L-glutamine (Life Technologies, Rockville, Md.) in T175 flasks. Cells were infected with HBV AD38 viral particles (Texcell, Frederick, USA) at 4000 genome equivalents per cell. After allowing viral infection to take place for 4 days, the infected cells were harvested from the flasks by trypsinization, washed twice with OptiMEM (Life Technologies, Rockville, Md.) and re-suspended in DMEM containing 2% FBS and 1% DMSO at a density of 0.25E6 cells/ml. Infected cells were seeded on 384 well collagen coated plates (Greiner, Austria) at a density of 20,000 cells/well containing serially diluted compounds of the present disclosure or DMSO (0.5%) in a final volume of 80 μl. The assay plates were incubated for a period of 5 days and the antiviral activity of the test compounds were assayed by detecting the presence of HBV DNA in the culture supernatant using the QuantiGene™ 2.0 nucleic acid quantification kit (Affymetrix, Santa Clara, Calif.).The culture supernatant was harvested and treated with lysis buffer containing Proteinase K (Affymetrix, Santa Clara, Calif.). The supernatant was incubated with HBV viral DNA specific probes (Affymetrix, Santa Clara, Calif.) for 30 minutes at 55° C. This was followed by addition of 0.2M NaOH for 30 minutes at room temperature to denature the DNA, followed by addition of Neutralization buffer (Affymetrix, Santa Clara, Calif.). The resulting lysed and neutralized supernatant was then added to QuantiGene™ 2.0 384 well plates coated with capture oligonucleotides and incubated overnight at 55° C. The HBV specific probe set consists of Capture Extender oligonucleotides (CE's) and blocking probes. Following the overnight incubation, the wells were incubated for one hour sequentially with a Pre-Amplifier, Amplifier and Labeled probes conjugated to alkaline phosphatase with a wash step between incubations. After the final wash step, the alkaline phosphatase substrate (Luminol APS5) was added and the resulting luminescence signal was read in an EnVision Multilabel Plate Reader (PerkinElmer, Santa Clara, Calif.). The EC50 values were calculated from the fit of the dose-response curves to a four-parameter equation.
Compound `CC(NC(=O)C(=O)c1c(Cl)c(C(=O)Nc2ccc(F)c(C#N)c2)n2c1CCC2)C(F)(F)F` (centres undefined) has a pEC50 of 7.57. In the case of `Cc1c(C(=O)C(=O)NC2(C(=O)N3CC4(C3)CN(S(C)(=O)=O)C4)CC(F)(F)C2)c2n(c1C(=O)Nc1ccc(F)c(C#N)c1)CCC2`, the pEC50 was 6.95. For `Cc1c(C(=O)C(=O)NC2(C(=O)N3CC4(COC4)C3)CC(F)(F)C2)c2n(c1C(=O)Nc1ccc(F)c(C#N)c1)CCC2`, the pEC50 was 7.49. Work on `CNC(=O)C1(NC(=O)C(=O)c2c(C)c(C(=O)OC)n3c2C[C@H]2C[C@H]23)CC(F)(F)C1` yielded a pEC50 of 8.06.
